# Legend:
# Type in all cases: cell-based, human
# [1] = system: LS180 cells adhering to recombinant E-selectin; experiment: Cell adhesion to immobilized E-selectin; conditions: LS180 cells grown 5 days with disaccharide
# Method: Cell adhesion to immobilized selectins. 96-well plates were coated overnight at 4° C. with recombinant E-selectin (4 μg/ml) or P-selectin (2 μg/ml) (R & D Systems) and blocked with 1% BSA/PBS. LS180 cells were grown for 5 days with various amounts of acetylated disaccharide, harvested, labeled with Calcein AM (5 μM, Molecular Probes) in DMEM/1% FBS, and allowed to settle at room temperature on selectin-coated wells (5×10^4 cells/well). Plates were then stirred at 75 rpm for 30 min (Orbit shaker, Lab-Line Instruments) followed by immersion upside-down in a vessel filled with Hank's buffered saline solution (HBSS, Sigma), which allowed non-adherent cells to fall under gravity. St John et al., J. Immunol Methods, 170: 159-166, 1994. The wells were then washed by aspiration using HBSS. LS180 cells were less adherent to P-selectin, so the immersion step was not necessary prior to washing. […] Fluorescence was measured using a 96-well fluorimeter (CytoFluor II), and the average of triplicate measurements was determined±standard error. Cell viability was judged to be >90% by Trypan blue exclusion at the end of each experiment.
# Adhesion to selectins is altered in disaccharide-treated tumor cells. Treatment of LS180 cells with AcGnG-NM was not toxic to the cells up to 100 μM based on growth curves and exclusion of Trypan blue. […]
# [2] = system: cell-surface sLe^X of LS180 cells; experiment: Flow cytometry of cell-surface sLe^X (CSLEX-1); conditions: 50 μM
# Method: Peracetylated forms of GlcNAcβ1,3Galβ-O-naphthalenemethanol (AcGnG-NM) and Galβ1,3Galβ-O-naphthalenemethanol (AcGG-NM) were prepared as described. Sarkar, et al., Carbohydr. Res., 329, 287-300, 2000. The compounds were dissolved in dimethylsulfoxide (DMSO) and added to growth medium to achieve the concentrations indicated in the figures. The supplemented medium was then exchanged for the medium in established cultures of cells in order to avoid lysis caused by adding concentrated DMSO directly to the plates. The final concentration of DMSO was adjusted to ≦0.5% (v/v). After the specified number of days, the cells were harvested with 2 mM EDTA in PBS (20 min) and used for the following experiments.
# Cell Sorting. To detect the presence or absence of the relevant carbohydrate determinants, cells were stained with CSLEX-1 (anti-sLe^X, 5 μg/mL, Becton-Dickinson) or CA-19-9 ([…], 14.5 μg/mL, Chemicon) and analyzed by flow cytometry (FACScan Becton-Dickinson, Franklin Lakes, N.J.). […]
# Treatment of LS180 cells with AcGnG-NM reduces cell-surface sLe^X, but not sLe^a. […] LS180 cells were grown in the presence of 50 μM AcGnG-NM, harvested with EDTA, stained with monoclonal antibodies (CSLEX-1, anti-sLe^X and CA19-9, anti-sLe^a) as indicated and analyzed by flow cytometry (Materials and Methods). […]
# LS180 cells [3] = experiment: Toxicity and growth of LS180 cells in culture
# Method: Adhesion to selectins is altered in disaccharide-treated tumor cells. Treatment of LS180 cells with AcGnG-NM was not toxic to the cells up to 100 μM based on growth curves and exclusion of Trypan blue. […] LS180 colon carcinoma cells were “panned” onto wells precoated with recombinant E- or P-selectin as indicated. Open circles, adhesion to E-selectin; filled circles, adhesion to P-selectin. The extent of adhesion was normalized to the value obtained for cells not treated with disaccharide. […] Each experimental condition was done in quadruplicate and the average values±standard errors are given. […] Adhesion to P-selectin was more sensitive to the inhibitor than adhesion to E-selectin under these conditions. The inhibitory effect of AcGnG-NM was specific since incubation of cells with acetylated Galβ1,3Galβ-O-NM (AcGG-NM) had no effect on expression of sLe^X or adhesion to either selectin conjugate See FIG. 3. The maximum extent of inhibition approached the values obtained when the cells were pre-treated with sialidase or blocking antibody to the corresponding selectin.
# A final consideration is the ability of selectins to participate in “arresting” newly circulating tumor cells in organ capillary beds. Entrapment of emboli may have important consequences on the eventual uptake and growth of tumor “seeds” into large metastatic tumor foci. […]
# LS180 cells [4] = experiment: Cytolytic assay (51Cr release) with platelets
substance,measurement,setting,value
"GlcNAcβ1,3Galβ-O-naphthalenemethanol [AcGnG-NM]",adhesion to recombinant E-selectin,[1],reduced the ability of LS180 cells to adhere
same,cell-surface sLe^X,[2],significant inhibition
same,LS180 growth in culture,LS180 cells [3]; up to 50 μM,minimal effects
same,toxicity to the cells,"LS180 cells [3]; up to 100 μM, growth curves and exclusion of Trypan blue",not toxic
same,platelet protection from cytolysis,"LS180 cells [4]; cells pretreated with 50 μM for 6 days, mouse leukocytes and platelets",markedly reduced
same,cytolysis in whole human blood,"LS180 cells [4]; whole human blood, 3 hr",comparable results
